Read-outs that look alike come from different tables or passages of the source.
Assays:
Assay type in all cases: cell-based
Human Cav 2.2 channels = Human Cav 2.2 channels (Homo sapiens, UniProt Q00975); assay: Fluorescent assay for CaV2.2 channels using potassium depolarization (VIPR/FLIPR); conditions: FLIPR data; for CAv2.2 IC50 Ratio closed/inact.: ratio closed/inactivated IC50
Summary of the method: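 HEK293 cells stably expressing human Cav2.2 with α2δ and β subunits plus Kir2.3 were loaded with fluo-4 and incubated 30 min at 25 °C with compound in 4, 12, 25 or 30 mM potassium buffer. Channels were opened with 70 mM potassium (final) and calcium influx was read by fluorescence (Ex 480/Em 535 nm).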

CAv1.2 = CAv1.2 (Homo sapiens, UniProt Q13936); assay: FLIPR data, CAv1.2 channel blocking (Table 6); conditions: for CAv1.2 IC50 Ratio closed/inact.: ratio closed/inactivated IC50
T-type calcium channel [1] = target: T-type calcium channel (Homo sapiens, UniProt O95180); assay: T-type channel blocking, FLIPR data (Table 6); conditions: for CAv3.2 IC50 Ratio closed/inact.: CAv3.2, ratio closed/inactivated IC50
Description: (§1) Another method, high-throughput spectrophotometric assay, utilizes loading of the cell lines with a fluorescent dye sensitive to intracellular calcium concentration and subsequent examination of the effects of compounds on the ability of depolarization by potassium chloride or other means to alter intracellular calcium levels.

T-type calcium channel [2] = target: T-type calcium channel (Homo sapiens, UniProt O43497); assay: T-type channel blocking, FLIPR data (Table 6); conditions: CAv3.1
Description: as §1

[3] = closed state, read-out: CAv2.2 IC50 Closed
[4] = inactivated state, read-out: CAv2.2 IC50 Inact.
[5] = closed state, read-out: CAv1.2 IC50 Closed
[6] = inactivated state, read-out: CAv1.2 IC50 Inact.
[7] = CAv3.2, closed state, read-out: CAv3.2 IC50 Closed
[8] = CAv3.2, inactivated state, read-out: CAv3.2 IC50 Inact.

Chain of Human Cav 2.2 channels (Q00975 whole entry): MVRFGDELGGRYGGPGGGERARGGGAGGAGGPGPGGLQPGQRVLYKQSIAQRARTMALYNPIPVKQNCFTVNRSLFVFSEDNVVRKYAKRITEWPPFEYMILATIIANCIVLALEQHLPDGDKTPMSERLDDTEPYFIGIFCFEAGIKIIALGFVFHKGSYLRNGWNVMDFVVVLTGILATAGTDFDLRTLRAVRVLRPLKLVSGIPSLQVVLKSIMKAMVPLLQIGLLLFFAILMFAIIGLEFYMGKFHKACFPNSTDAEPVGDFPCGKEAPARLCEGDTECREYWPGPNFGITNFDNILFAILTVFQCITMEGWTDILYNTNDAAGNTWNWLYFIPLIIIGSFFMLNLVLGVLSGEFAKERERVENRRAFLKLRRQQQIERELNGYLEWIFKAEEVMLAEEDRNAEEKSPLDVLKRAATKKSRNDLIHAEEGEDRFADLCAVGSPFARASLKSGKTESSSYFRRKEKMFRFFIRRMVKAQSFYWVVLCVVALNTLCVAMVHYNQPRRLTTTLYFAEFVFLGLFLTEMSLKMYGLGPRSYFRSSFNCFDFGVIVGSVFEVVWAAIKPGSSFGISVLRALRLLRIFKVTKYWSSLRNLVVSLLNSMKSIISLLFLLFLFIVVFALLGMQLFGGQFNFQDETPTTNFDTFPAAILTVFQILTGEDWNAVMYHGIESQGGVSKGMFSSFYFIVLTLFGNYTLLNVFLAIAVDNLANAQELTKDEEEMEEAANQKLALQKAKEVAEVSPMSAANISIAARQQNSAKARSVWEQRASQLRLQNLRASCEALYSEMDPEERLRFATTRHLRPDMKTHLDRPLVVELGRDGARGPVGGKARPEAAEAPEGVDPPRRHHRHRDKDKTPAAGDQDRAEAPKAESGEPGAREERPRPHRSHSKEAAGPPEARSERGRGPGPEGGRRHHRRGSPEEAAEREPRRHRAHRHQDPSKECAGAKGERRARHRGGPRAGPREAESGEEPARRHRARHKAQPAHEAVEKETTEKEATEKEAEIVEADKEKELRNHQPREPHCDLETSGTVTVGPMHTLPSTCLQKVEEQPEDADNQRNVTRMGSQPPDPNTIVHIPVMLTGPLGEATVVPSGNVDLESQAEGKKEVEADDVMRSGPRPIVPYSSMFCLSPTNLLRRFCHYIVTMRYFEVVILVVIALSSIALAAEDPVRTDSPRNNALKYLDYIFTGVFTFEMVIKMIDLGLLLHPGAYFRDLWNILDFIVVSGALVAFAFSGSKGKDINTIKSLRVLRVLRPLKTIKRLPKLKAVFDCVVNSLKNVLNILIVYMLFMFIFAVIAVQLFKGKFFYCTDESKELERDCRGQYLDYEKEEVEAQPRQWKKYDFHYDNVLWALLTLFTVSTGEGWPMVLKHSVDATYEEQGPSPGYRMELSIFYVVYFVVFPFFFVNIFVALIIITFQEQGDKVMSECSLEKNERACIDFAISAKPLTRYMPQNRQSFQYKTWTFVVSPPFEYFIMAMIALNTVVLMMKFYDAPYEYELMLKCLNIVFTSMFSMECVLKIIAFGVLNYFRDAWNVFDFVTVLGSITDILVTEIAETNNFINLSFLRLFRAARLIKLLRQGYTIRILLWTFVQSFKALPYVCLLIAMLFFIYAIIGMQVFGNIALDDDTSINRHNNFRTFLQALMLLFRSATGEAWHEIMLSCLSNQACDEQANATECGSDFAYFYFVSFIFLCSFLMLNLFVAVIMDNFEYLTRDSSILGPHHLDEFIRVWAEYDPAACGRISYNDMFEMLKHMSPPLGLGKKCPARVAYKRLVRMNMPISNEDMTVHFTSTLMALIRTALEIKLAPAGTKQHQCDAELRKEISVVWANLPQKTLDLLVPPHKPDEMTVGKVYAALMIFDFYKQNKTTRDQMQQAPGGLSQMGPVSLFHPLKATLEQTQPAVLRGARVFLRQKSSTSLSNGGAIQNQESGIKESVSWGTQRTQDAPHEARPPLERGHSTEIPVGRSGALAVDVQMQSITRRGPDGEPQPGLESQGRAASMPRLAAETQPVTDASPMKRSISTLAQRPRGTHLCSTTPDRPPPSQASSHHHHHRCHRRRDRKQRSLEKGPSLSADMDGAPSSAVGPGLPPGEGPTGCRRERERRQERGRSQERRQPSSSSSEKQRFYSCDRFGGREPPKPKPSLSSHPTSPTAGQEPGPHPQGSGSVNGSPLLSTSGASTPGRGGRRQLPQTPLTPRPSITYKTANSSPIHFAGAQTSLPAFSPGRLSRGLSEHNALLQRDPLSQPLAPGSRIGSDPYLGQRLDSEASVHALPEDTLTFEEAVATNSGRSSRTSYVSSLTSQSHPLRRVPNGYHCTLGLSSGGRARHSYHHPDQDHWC
Chain of Human Cav 2.2 channels (P54289 25-1103 partner): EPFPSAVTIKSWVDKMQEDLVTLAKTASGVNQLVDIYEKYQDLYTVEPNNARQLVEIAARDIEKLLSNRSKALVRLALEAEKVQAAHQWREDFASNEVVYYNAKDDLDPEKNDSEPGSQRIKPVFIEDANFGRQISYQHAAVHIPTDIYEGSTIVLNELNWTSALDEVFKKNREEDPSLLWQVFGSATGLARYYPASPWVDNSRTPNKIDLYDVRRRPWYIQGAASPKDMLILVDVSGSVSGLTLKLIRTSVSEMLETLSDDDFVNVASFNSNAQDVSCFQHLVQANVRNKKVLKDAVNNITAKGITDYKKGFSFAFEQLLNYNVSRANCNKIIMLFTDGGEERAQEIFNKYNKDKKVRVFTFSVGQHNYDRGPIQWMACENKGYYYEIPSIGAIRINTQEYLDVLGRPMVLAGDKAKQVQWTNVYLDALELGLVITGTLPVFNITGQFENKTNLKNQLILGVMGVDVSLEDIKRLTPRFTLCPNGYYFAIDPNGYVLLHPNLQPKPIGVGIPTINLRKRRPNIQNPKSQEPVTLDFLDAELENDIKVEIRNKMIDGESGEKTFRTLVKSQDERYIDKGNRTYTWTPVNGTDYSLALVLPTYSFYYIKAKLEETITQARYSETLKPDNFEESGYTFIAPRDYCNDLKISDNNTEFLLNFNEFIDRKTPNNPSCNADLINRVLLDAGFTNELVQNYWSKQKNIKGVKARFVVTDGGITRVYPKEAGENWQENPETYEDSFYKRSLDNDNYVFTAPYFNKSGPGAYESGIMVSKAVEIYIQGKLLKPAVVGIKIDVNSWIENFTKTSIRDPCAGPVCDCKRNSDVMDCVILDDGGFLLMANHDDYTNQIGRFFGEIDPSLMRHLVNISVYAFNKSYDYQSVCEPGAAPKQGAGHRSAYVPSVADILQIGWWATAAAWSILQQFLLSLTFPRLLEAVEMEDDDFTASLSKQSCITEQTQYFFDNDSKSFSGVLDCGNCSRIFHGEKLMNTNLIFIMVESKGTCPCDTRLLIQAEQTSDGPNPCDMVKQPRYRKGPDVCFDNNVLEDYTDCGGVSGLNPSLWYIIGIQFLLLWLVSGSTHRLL
Chain of Human Cav 2.2 channels (P54284 whole entry partner): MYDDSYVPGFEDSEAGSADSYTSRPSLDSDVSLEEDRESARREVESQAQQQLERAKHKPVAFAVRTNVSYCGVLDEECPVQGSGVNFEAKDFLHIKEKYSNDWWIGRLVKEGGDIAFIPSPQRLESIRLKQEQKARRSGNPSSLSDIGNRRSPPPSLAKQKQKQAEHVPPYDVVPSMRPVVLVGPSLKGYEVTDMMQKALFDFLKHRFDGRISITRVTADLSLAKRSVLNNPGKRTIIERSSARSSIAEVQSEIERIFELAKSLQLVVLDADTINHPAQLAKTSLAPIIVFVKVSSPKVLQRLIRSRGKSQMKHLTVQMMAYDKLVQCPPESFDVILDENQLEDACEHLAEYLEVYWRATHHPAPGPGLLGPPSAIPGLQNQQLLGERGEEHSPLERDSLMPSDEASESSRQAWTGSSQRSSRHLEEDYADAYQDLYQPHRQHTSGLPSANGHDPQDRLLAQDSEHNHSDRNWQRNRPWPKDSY

| SMILES | IC50 (Human Cav 2.2 channels; [3]) [µM] | IC50 (Human Cav 2.2 channels; [4]) [µM] | CAv2.2 IC50 Ratio closed/inact. (Human Cav 2.2 channels) | IC50 (T-type calcium channel [1]; [7]) [µM] | IC50 (T-type calcium channel [1]; [8]) [µM] | CAv3.2 IC50 Ratio closed/inact. (T-type calcium channel [1]) | IC50 (T-type calcium channel [2]) [µM] | IC50 (CAv1.2; [5]) [µM] | IC50 (CAv1.2; [6]) [µM] | CAv1.2 IC50 Ratio closed/inact. (CAv1.2) |
| --- | --- | --- | --- | --- | --- | --- | --- | --- | --- | --- |
| CC(C)([C@H]1C[C@H](NS(=O)(=O)c2ccc(C(F)(F)F)nc2)C1)S(=O)(=O)c1cc(F)cc(C(F)(F)F)c1 [Compound 609] | 4.17 | 1.17 | 3.6 | ≥ 10 | 2.54 | 3.9 | 9.91 | 9.99 | 4.32 | 2.3 |
| Cc1nc(S(=O)(=O)N[C@H]2C[C@H](C(C)(C)S(=O)(=O)c3cc(F)cc(C(F)(F)F)c3)C2)cn1C [Compound 611] | 10 | 9.14 | 1.1 | – | 10 | – | ≥ 10 | ≥ 10 | ≥ 10 | – |
| CC(C)(C1CC(CNC(=O)c2ccc(C(F)(F)F)cc2S(C)(=O)=O)C1)S(=O)(=O)c1cccc(C(F)(F)F)c1 (stereo not shown) [Compound 612] | 8.54 | 0.54 | 15.8 | 9.28 | 3.95 | 2.3 | ≥ 10 | ≥ 10 | 4.17 | 2.4 |
| CC(C)S(=O)(=O)c1cc(C(F)(F)F)cnc1C(=O)NCC1CC(C(C)(C)S(=O)(=O)c2cccc(C(F)(F)F)c2)C1 (stereo not shown) [Compound 613] | 6.51 | 0.35 | 18.6 | 9.16 | 5.45 | 1.7 | ≥ 10 | 8 | 5.92 | 1.4 |
| CC(C)(C1CC(CNC(=O)c2cnc(C(F)(F)F)nc2)C1)S(=O)(=O)c1cccc(C(F)(F)F)c1 (stereo not shown) [Compound 616] | 4.81 | 0.61 | 7.9 | ≥ 10 | 6.4 | 1.6 | ≥ 10 | ≥ 10 | 2.81 | 3.6 |
| CC(C)([C@H]1C[C@@H](NS(=O)(=O)c2ccc(C(F)(F)F)cc2Cl)C1)S(=O)(=O)c1cc(F)cc(C(F)(F)F)c1 [Compound 622] | 4.79 | 0.68 | 7 | ≥ 10 | 4.48 | 2.2 | 4.86 | 9.01 | 1.94 | 4.6 |
| CC(C)([C@H]1C[C@@H](NS(=O)(=O)c2ccc(C(F)(F)F)cc2)C1)S(=O)(=O)c1cccc(C(F)(F)F)c1 [Compound 624] | 10 | 0.8 | 12.5 | 2.96 | 2.26 | 1.3 | 2.96 | ≥ 10 | 5.54 | 1.8 |
| CC(C)([C@H]1C[C@@H](NS(=O)(=O)c2ccc(F)c(Cl)c2)C1)S(=O)(=O)c1cccc(C(F)(F)F)c1 [Compound 625] | 10 | 1.09 | 9.2 | 3.71 | 3.1 | 1.2 | 3.74 | ≥ 10 | 6.39 | 1.6 |
| CC(C)([C@H]1C[C@@H](NS(=O)(=O)c2ccc(Cl)c(F)c2)C1)S(=O)(=O)c1cccc(C(F)(F)F)c1 [Compound 626] | 8.45 | 1.1 | 7.7 | 3.85 | 2.58 | 1.5 | 3.77 | 9.15 | 5.4 | 1.7 |
| CC(C)([C@H]1C[C@@H](NS(=O)(=O)c2ccc(C(F)(F)F)cc2Cl)C1)S(=O)(=O)c1cccc(C(F)(F)F)c1 [Compound 627] | 10 | 0.88 | 11.4 | 2.2 | 1.33 | 1.7 | 2.38 | ≥ 10 | 5.86 | 1.7 |
| CC(C)([C@H]1C[C@@H](NS(=O)(=O)c2ccc(F)c(C(F)(F)F)c2)C1)S(=O)(=O)c1cccc(C(F)(F)F)c1 [Compound 628] | 10 | 1.22 | 8.2 | 3.22 | 3.26 | 1 | 2.18 | ≥ 10 | 5.32 | 1.9 |
| CC(C)([C@H]1C[C@@H](NS(=O)(=O)c2ccc(C(F)(F)F)nc2)C1)S(=O)(=O)c1cccc(C(F)(F)F)c1 [Compound 629] | 7.45 | 0.43 | 17.3 | 3.41 | 3.38 | 1 | 2.97 | ≥ 10 | 4.66 | 2.1 |
| CC(C)([C@H]1C[C@@H](NS(=O)(=O)c2ccc(OC(F)(F)F)cc2)C1)S(=O)(=O)c1cccc(C(F)(F)F)c1 [Compound 630] | 10 | 0.68 | 14.7 | 3.73 | 2.16 | 1.7 | 2.33 | ≥ 10 | 3.11 | 3.2 |

Stronger by IC50 (Human Cav 2.2 channels; [3]), values ahead:

| IC50 (Human Cav 2.2 channels; [3]) [µM] | IC50 (Human Cav 2.2 channels; [4]) [µM] | CAv2.2 IC50 Ratio closed/inact. (Human Cav 2.2 channels) | IC50 (T-type calcium channel [1]; [7]) [µM] | IC50 (T-type calcium channel [1]; [8]) [µM] | CAv3.2 IC50 Ratio closed/inact. (T-type calcium channel [1]) | IC50 (T-type calcium channel [2]) [µM] | SMILES | IC50 (CAv1.2; [5]) [µM] | IC50 (CAv1.2; [6]) [µM] | CAv1.2 IC50 Ratio closed/inact. (CAv1.2) |
| --- | --- | --- | --- | --- | --- | --- | --- | --- | --- | --- |
| 3.58 | 1.13 | 3.2 | ≥ 10 | 1.43 | 7 | 5.3 | CC(C)([C@H]1C[C@H](NS(=O)(=O)c2ccc(OC(F)(F)F)cc2)C1)S(=O)(=O)c1cc(F)cc(C(F)(F)F)c1 [Compound 610] | 8.93 | 2.93 | 3 |
| 3.37 | 0.74 | 4.6 | ≥ 10 | 1.54 | 6.5 | 5.3 | CC(C)([C@H]1C[C@H](NS(=O)(=O)c2ccc(C(F)(F)F)cc2Cl)C1)S(=O)(=O)c1cc(F)cc(C(F)(F)F)c1 [Compound 623] | 8.07 | 1.54 | 5.2 |
| 2.87 | 0.49 | 5.9 | 7.2 | 3.2 | 2.3 | ≥ 10 | CC(C)(C1CC(CNC(=O)c2cc(C(F)(F)F)n[nH]2)C1)S(=O)(=O)c1cccc(C(F)(F)F)c1 (stereo not shown) [Compound 614] | 8.03 | 2.41 | 3.3 |
| 2.87 | 0.39 | 7.4 | 5.52 | 1.39 | 4 | 8.71 | CC(C)(C1CC(CNC(=O)c2ccnc(C(F)(F)F)c2)C1)S(=O)(=O)c1cccc(C(F)(F)F)c1 (stereo not shown) [Compound 620] | 9.99 | 0.67 | 14.9 |
| 1.83 | 0.15 | 12.2 | 1.53 | 0.2 | 7.7 | 1.47 | CC(C)(C1CC(CNC(=O)c2ccc(Cl)c(OC(F)(F)F)c2)C1)S(=O)(=O)c1cccc(C(F)(F)F)c1 (stereo not shown) [Compound 621] | 3.39 | 0.24 | 14.1 |
| 1.66 | 0.26 | 6.4 | 3.29 | 1.27 | 2.6 | 5.12 | CC(C)(C1CC(CNC(=O)c2ccc(OCC(F)(F)F)nc2)C1)S(=O)(=O)c1cccc(C(F)(F)F)c1 (stereo not shown) [Compound 619] | 4.42 | 1.36 | 3.3 |
| 1.37 | 0.25 | 5.5 | ≥ 10 | 7.17 | 1.4 | ≥ 10 | CC(C)(C1CC(CNC(=O)c2ccnc(C(F)(F)F)n2)C1)S(=O)(=O)c1cccc(C(F)(F)F)c1 (stereo not shown) [Compound 615] | ≥ 10 | 5.61 | 1.8 |
| 1.34 | 0.15 | 8.9 | 2.69 | 0.81 | 3.3 | 8.03 | CC(C)(C1CC(CNC(=O)c2ccc(Cl)c(F)c2)C1)S(=O)(=O)c1cccc(C(F)(F)F)c1 (stereo not shown) [Compound 617] | 4.05 | 0.38 | 10.7 |
| 1.3 | 0.12 | 10.8 | 1.99 | 0.35 | 5.7 | 2.47 | CC(C)(C1CC(CNC(=O)c2ccc(F)c(Cl)c2)C1)S(=O)(=O)c1cccc(C(F)(F)F)c1 (stereo not shown) [Compound 618] | 4.08 | 0.3 | 13.6 |
